The results in this text go back to ChEMBL document CHEMBL4699511, “Cedrol, a Sesquiterpene Alcohol, Enhances the Anticancer Efficacy of Temozolomide in Attenuating Drug Resistance via Regulation of the DNA Damage Response and MGMT Expression” (J Nat Prod, 2020).

Series [1] concerns DBTRG-05MG. Description: Synergistic cytotoxicity against human DBTRG-05MG cells assessed as combination index at 89.9 uM after 48 hrs in presence of 103 uM TMZ by MTT assay. In kind it is functional.
The nature of series [2]: Effect of CD133 expression in rat RG2 cells at 112.4 uM after 48 hrs by Western blot analysis. The format is functional. In general terms: Immunoblotting shows a protein as a band on a membrane.
Series [3] has as its system RG2. In words: Synergistic cytotoxicity against rat RG2 cells assessed as synergistic effect index at 89.9 uM after 48 hrs in presence of 206 uM TMZ by MTT assay. The format is functional.
Series [4] in a line: Synergistic cytotoxicity against rat CTX TNA2 cells assessed as synergistic effect index at 134.9 uM after 48 hrs in presence of 412.1 uM TMZ by MTT assay. In kind it is cell-based. Conditions: ctx tna2, 48 h. (Tetrazolium assays rely on reduction of a dye to a coloured formazan, in cell work by metabolically active cells.)
Series [5] relates to RG2. Description: Induction of DNA damage in rat RG2 cells assessed as ATR phosphorylation at ser428 residues at 112.4 uM after 48 hrs by Western blot analysis (reference value: 1). In kind it is functional.
The test system of series [6] is RG2. In words: Induction of apoptosis in rat RG2 cells assessed as phosphorylated caspace-9 expression at 112.4 uM after 48 hrs in presence of TMZ by Western blot analysis (reference value: 1). The format is functional.
Series [7] relates to RG2. Description: Induction of DNA damage in rat RG2 cells assessed as Chk1 phosphorylation at ser345 at 112.4 uM after 48 hrs in presence of TMZ by Western blot analysis (reference value: 1). In kind it is functional.
In series [8] the test system is RG2. Description: Inhibition of AKT phosphorylation at S473 residues in rat RG2 cells at 112.4uM after 48 hrs in presence of TMZ by Western blot analysis. In kind it is cell-based.
Series [9] deals with DBTRG-05MG. In words: Induction of DNA damage in human DBTRG-05MG cells at 112.4 uM after 48 hrs in presence of TMZ by p.H2A.X staining based fluorescent immunocytochemistry method. In kind it is functional, cell-based.
Series [10] concerns RG2. In words: Synergistic cytotoxicity against rat RG2 cells assessed as combination index at 112.4 uM after 48 hrs in presence of 206 uM TMZ by MTT assay. The format is functional.
The subject of series [11] is DBTRG-05MG. In words: Potentiation of TMZ-induced antitumor activity against human DBTRG-05MG cells xenografted in BALB/c nude mouse assessed as increase DNA damage at 75 mg/kg, sc co-treated with TMZ for 18 days by p.H2A.X staining based fluorescent immunocytochemistry method. The format is functional, organism-based. Conditions: time 18.0 day.
Series [12] deals with RG2. Description: Inhibition of ERK phosphorylation at Tyr204 residues in rat RG2 cells at 112.4uM after 48 hrs in presence of TMZ by Western blot analysis (reference value: 1). The format is cell-based.
Series [13] in a line: Effect on ERK expression in rat RG2 cells at 112.4uM after 48 hrs by Western blot analysis (reference value: 1). In kind it is functional.
Series [14] deals with RG2. Description: Induction of apoptosis in rat RG2 cells assessed as Bcl2 expression at 112.4 uM after 48 hrs by Western blot analysis (reference value: 1). The format is functional.
In series [15] the test system is DBTRG-05MG. Description: Induction of cell cycle arrest in human DBTRG-05MG cells assessed as CDK4 expression at 112.4 uM after 48 hrs in presence of TMZ by Western blot analysis (reference value: 1). The format is functional.
The nature of series [16]: Synergistic cytotoxicity against rat CTX TNA2 cells assessed as synergistic effect index at 112.4 uM after 48 hrs in presence of 309 uM TMZ by MTT assay. In kind it is cell-based. The conditions noted are these: ctx tna2, 48 h.
The subject of series [17] is DBTRG-05MG. In words: Induction of DNA damage in human DBTRG-05MG cells assessed as ATR phosphorylation at ser428 residues at 112.4 uM after 48 hrs by Western blot analysis (reference value: 1). The format is functional.
Series [18] deals with DBTRG-05MG. Description: Induction of apoptosis in human DBTRG-05MG cells assessed as increase in apoptotic body formation at 112.4 uM after 48 hrs in presence of TMZ by TUNEL assay. The format is functional, cell-based.
Series [19] relates to RG2. Description: Induction of apoptosis in rat RG2 cells assessed as increase in apoptotic body formation at 112.4 uM after 48 hrs by TUNEL assay. The format is functional, cell-based.
Series [20] in a line: Synergistic cytotoxicity against rat CTX TNA2 cells assessed as combination index at 89.9 uM after 48 hrs in presence of 412.1 uM TMZ by MTT assay. In kind it is cell-based. Conditions: ctx tna2, 48 h.
Series [21] deals with DBTRG-05MG. Description: Induction of cell cycle arrest in human DBTRG-05MG cells assessed as CyclinD1 expression at 112.4 uM after 48 hrs by Western blot analysis (reference value: 1). The format is functional.
For series [22], the system named is DBTRG-05MG. Description: Potentiation of TMZ-induced antitumor activity against human DBTRG-05MG cells xenografted in BALB/c nude mouse assessed as reduction in tumor growth at 75 mg/kg, sc co-treated with TMZ for 18 days by PCNA staining-based bright field microscopic analysis. The format is functional, organism-based. The conditions noted are these: time 18.0 day.

Series [23] has as its system RG2. In words: Induction of apoptosis in rat RG2 cells assessed as phosphorylated PARP expression at 112.4 uM after 48 hrs in presence of TMZ by Western blot analysis (reference value: 1). The format is functional.
The subject of series [24] is DBTRG-05MG. Description: Induction of cell cycle arrest in human DBTRG-05MG cells assessed as p21 expression at 206 uM after 48 hrs by Western blot analysis (reference value: 1). The format is functional.
In series [25] the test system is RG2. In words: Induction of cell cycle arrest in rat RG2 cells assessed as CDK4 expression at 206 uM after 48 hrs by Western blot analysis (reference value: 1). The format is functional.
The test system of series [26] is DBTRG-05MG. In words: Induction of cell cycle arrest in human DBTRG-05MG cells assessed as accumulation at G2/M phase at 206 uM after 24 hrs by propidium iodide staining based flow cytometric analysis (reference value: 30.08 +/- 0.1%). The format is functional. Background: A flow cytometer gives signals particle by particle.
In series [27] the test system is DBTRG-05MG. In words: Induction of apoptosis in human DBTRG-05MG cells assessed as cleaved caspace-3 expression at 206 uM after 48 hrs by Western blot analysis (reference value: 1). The format is functional.
Series [28] concerns RG2. In words: Induction of cell cycle arrest in rat RG2 cells assessed as accumulation at G0/G1 phase at 206 uM after 24 hrs by propidium iodide staining based flow cytometric analysis (reference value: 57.81 +/- 1.9%). In kind it is functional.
Series [29] relates to RG2. Description: Inhibition of JNK phosphorylation at Thr183/Tyr185 residues in rat RG2 cells at 206 uM after 48 hrs by Western blot analysis (reference value: 1). The format is cell-based.
For series [30], the system named is DBTRG-05MG. Description: Inhibition of JNK phosphorylation at Thr183/Tyr185 residues in human DBTRG-05MG cells at 206 uM after 48 hrs by Western blot analysis (reference value: 1). In kind it is cell-based.
Series [31] deals with RG2. In words: Induction of DNA damage in rat RG2 cells assessed as Chk1 phosphorylation at ser345 at 206 uM after 48 hrs by Western blot analysis (reference value: 1). The format is functional.
Series [32] deals with DBTRG-05MG. Description: Induction of cell cycle arrest in human DBTRG-05MG cells assessed as accumulation at G0/G1 phase at 206 uM after 12 hrs by propidium iodide staining based flow cytometric analysis (reference value: 47.16 +/- 1.55%). In kind it is functional.
Series [33] deals with RG2. In words: Induction of cell cycle arrest in rat RG2 cells assessed as accumulation at S phase at 206 uM after 6 hrs by propidium iodide staining based flow cytometric analysis (reference value: 20.15 +/- 2.44%). The format is functional.
For series [34], the system named is RG2. In words: Inhibition of p38 phosphorylation at Tyr182 residues in rat RG2 cells at 206 uM after 48 hrs by Western blot analysis (reference value: 1). In kind it is cell-based.

Structures are written as SMILES. The source made the active and inactive calls. No cut-off for these calls is given here.

For the molecule `C[C@@H]1CC[C@H]2C(C)(C)[C@H]3C[C@@]12CC[C@@]3(C)O` [CEDROL], the CI in the series on DBTRG-05MG [1] is 0.74; with RG2 [10], 0.79; in [20] it was 1.11. For the same molecule, the “fold change (FC)” value turned out to be 1 in [2]; 0.9 in the series on RG2 [5]; 0.4 with RG2 [6]; 3.5 with RG2 [7]; 0.5 with RG2 [8]; 0.3 in the series on RG2 [12]. Further, the “fold change (FC)” value stood at 1.1 in series [13]; 1.1 in the series with RG2 [14]; 0.6 in the series on DBTRG-05MG [15]; 1.5 with DBTRG-05MG [17]; 0.7 in the series on DBTRG-05MG [21]; 0.5 in the series with RG2 [23]. Also, the Activity_index in the series on RG2 [3] came out at 0.69; in series [4] it was 0.58; in series [16], 0.51. Further, the outcome in the series with DBTRG-05MG [9], in the series on DBTRG-05MG [11], with DBTRG-05MG [18], in the series on RG2 [19] and in the series with DBTRG-05MG [22] was Active.
As to `Cn1nnc2c(C(N)=O)ncn2c1=O` [TEMOZOLOMIDE], the “fold change (FC)” value came to 2.1 in the series on DBTRG-05MG [24]; 0.6 with RG2 [25]; 3.3 in the series with DBTRG-05MG [27]; 0.9 with RG2 [29]; 1.2 with DBTRG-05MG [30]; 1.8 with RG2 [31]. In addition, the fold change (FC) in the series with RG2 [34] turned out to be 1.3. In addition, the Activity in the series on DBTRG-05MG [26] turned out to be 43.53%; with RG2 [28] it was 52.7%; in the series on DBTRG-05MG [32], 42.28%; in the series with RG2 [33], 24.46%.
